Assay results published in publication PMC5063506, “A Novel Class of Small Molecule Agonists with Preference for Human over Mouse TLR4 Activation” (PLoS ONE, 2016).
In brackets after ≈: the same amount, converted by molar mass.

What was measured:
mouse splenocytes = test: Cytokine induction in mouse splenocytes (mouse MILLIPLEX); format: cell-based, BALB/c mouse; conditions: 1 and 0.2 μg/ml, 24 h
Description: (§1) Splenocytes were isolated from naïve BALB/c mice by dissociating spleens with a GentleMACS (Miltenyi) instrument, then filtration through […] screens. For other species, blood was obtained through venipuncture or cardiac puncture into heparinized tubes, then diluted 1:1 with PBS or HBSS and layered onto Ficoll-Histopaque (GE Healthcare) for blood from healthy human volunteers and cynomolgus macaques, Lympholyte-Mammal (Cedarlane Labs) for New Zealand white rabbits, Sprague-Dawley rats, Hartley guinea pigs, cotton rats, and ferrets, followed by standard density centrifugation techniques. […]
(§2) PBMCs (human, cynomolgus macaque, guinea pig, ferret, rabbit, rat, and cotton rat) or splenocytes (mouse) were seeded onto 96-well flat bottom plates at 5 x 10^5 cells/well and stimulated with TLR4 agonists at 1 and 0.2 μg/ml for 24 h at 37°C. […] For human, cyno, mouse, and rat, cell-free SNs were analyzed via human, NHP, mouse, and rat MILLIPLEX kits. For GP, ferret, rabbit, and CR, cells were lysed by Millipore lysing buffer and snap frozen at -70 C until ready for analysis by Affymetrix QuantiGene 2.0 Plex kits. […] Signal was detected using a Bioplex 200 instrument (BioRad). […]
Fig 6 The Ugi compound-induced cytokine profile is similar to MPL and LPS in human PBMCs but not mouse splenocytes. […] SNs were analyzed via human and mouse MILLIPLEX kits. […]

GP PBMCs = test: Cytokine gene expression in guinea pig PBMCs (QuantiGene Plex); format: cell-based; conditions: 1 and 0.2 μg/ml, 24 h, ranking among Ugi compounds
Description: Splenocytes were isolated from naïve BALB/c mice by dissociating spleens with a GentleMACS (Miltenyi) instrument, then filtration through […] screens. For other species, blood was obtained through venipuncture or cardiac puncture into heparinized tubes, then diluted 1:1 with PBS or HBSS and layered onto Ficoll-Histopaque (GE Healthcare) for blood from healthy human volunteers and cynomolgus macaques, Lympholyte-Mammal (Cedarlane Labs) for New Zealand white rabbits, Sprague-Dawley rats, Hartley guinea pigs, cotton rats, and ferrets, followed by standard density centrifugation techniques. PBMCs layers were recovered and cultured in RPMI-1640 + human AB serum (Life Technologies) + Pen Strep + L-Glutamine (human cells) or RPMI-1640 + 10% FBS (Hyclone) + Pen/Strep + L-Glutamine + 0.1% Beta-Mercapto-ethanol (Sigma) (mouse, cyno, rat, cotton rat, guinea pig, rabbit, ferret cells). Purchase of peripheral blood from cynomolgus macaques was from Valley Biosystems (West Sacramento, CA) and was performed in accordance with Standard Operating Procedures and with the approval of the Valley Biosystems Institutional Animal Care and Use Committee (IACUC). […]
as §2
Fig 7 Activation of cytokine gene expression by Ugi compounds in GP PBMCs. […] SNs were analyzed via GP Affymetrix QuantiGene Plex assay. Data are expressed as the means of 3 GPs at the 1 μg/ml dose of TLR4 agonist and are representative of 2 studies. […]

[1] = Intrinsic clearance in presence of rat hepatocytes; format: in vitro ADME; conditions: read-out: Clint rh (intrinsic clearance, rat hepatocytes)
From the text: (§3) Fig 2 Optimization stages of Ugi products as TLR4 agonists. *Human TLR-4 NFκB SEAP reporter assays; protocol as described in Methods. Data are reported as pEC50, or negative log of the EC50 values. **Clint rh / hm represents intrinsic clearance in presence of rat hepatocytes (μL/min/10^6 cells) and human microsomes (μL/min/mg protein). […] Thus a drug molecule with LogD >4 might be considered to be very lipophilic and therefore more likely to suffer from rapid metabolic turnover, poor solubility and receptor promiscuity; whereas a LogD range of 1–3 is more likely to be associated with optimal physicochemical and drug-like properties. ^††Solubility was measured by dissolution of solid samples in buffer at pH 7.4.

[2] = Intrinsic clearance in presence of human microsomes; format: in vitro ADME; conditions: read-out: Clint hm (intrinsic clearance, human microsomes)
From the text: as §3

cytochrome P450 enzymes = test: Inhibition of cytochrome P450 enzymes (unpublished data); format: in vitro ADME; conditions: compared with earlier-stage, more lipophilic Ugi compounds
[3] = Solubility by dissolution of solid samples in buffer; format: physicochemical; conditions: aqueous buffer, thermodynamic from solid; solid samples in buffer at pH 7.4
From the text: as §3

rat PBMCs = test: Cytokine induction in rat PBMCs (rat MILLIPLEX); format: cell-based, Sprague-Dawley rat; conditions: 1 and 0.2 μg/ml, 24 h
Description: as §1, §2
Fig 8 Secreted cytokine profile of rat PBMCs stimulated by AZ618. […] SNs were analyzed via rat MILLIPLEX kits. Data are expressed as the means of 3 rats at the 1 μg/ml dose of TLR4 agonist and are representative of 2 studies. […]

Question: Which “reactivity of mouse splenocytes (cytokine secretion)” value (mouse splenocytes) does the source give for CC(C)(C)c1ccc(N(C(=O)c2cc(-c3ccccc3)n(-c3ccccc3)n2)C(C(=O)NC2CCCC2)c2ccc(CC(=O)O)cc2)cc1 (stereo not drawn) [AZ902] here?
Answer: The value was “marginal activation”.

Question: And the “activity in GP PBMCs (cytokine mRNA)” value (GP PBMCs)?
Answer: The value was “lowest activity”.

Question: Which hepatocyte CLint [1] does the source give for O=C(O)Cc1ccc(C(C(=O)NC2CCCC2)N(C(=O)c2cc(-c3ccccc3)n(-c3ccccc3)n2)c2ccc3c(c2)CCC3)cc1 (stereo not drawn) [AZ617] here?
Answer: The hepatocyte CLint was less than 5 µL/min/1e6 cells.

Question: And the microsomal CLint [2]?
Answer: The microsomal CLint was less than 3 µL/min/mg.

Question: And the “activity in GP PBMCs (cytokine mRNA)” value (GP PBMCs)?
Answer: Its value is “highest activity”.

Question: What about the “inhibition of one or more cytochrome P450 enzymes” value (cytochrome P450 enzymes) of the same molecule?
Answer: Its value is “abolished”.

Question: What about the solubility [3] of the same molecule?
Answer: The solubility was 129 µM (≈ 82.4 µg/mL).

Question: For Cc1cc(C)cc(N(C(=O)c2cc(-c3ccccc3)n(-c3ccccc3)n2)C(C(=O)NC2CCCC2)c2ccc(CC(=O)O)cc2)c1 (stereo not drawn) [AZ618, 2-(4-(2-(cyclopentylamino)-1-(N-(3,5-dimethylphenyl)-1,5-diphenyl-1H-pyrazole-3-carboxamido)-2-oxoethyl)phenyl)acetic acid], which “response in rat PBMCs (cytokine secretion)” value (rat PBMCs) is on record?
Answer: The value was “comparable to that induced by MPL”.

Question: And the “activity in GP PBMCs (cytokine mRNA)” value (GP PBMCs)?
Answer: The value was “highest activity”.
